# Literature values as cited in US20060105063A1, “Synergic combination of compositions containing aloe vera isolates and their therapeutic application” (priority 2004, published 2006).
# Experiments:
# [1] = test system: animals ingesting a diet composed of 20% Fucose
structure (smiles),measurement,setting,value
C[C@H](O)[C@@H](O)[C@@H](O)[C@H](O)C=O [Fucose],Oral dose considered safe,healthy 150-pound adult,≤ 34 grams
same,"Rate of excretion, mainly in the urine",humans,approximately 17 micrograms per minute
same,Time to elimination from the bloodstream,"oral, after maximum blood levels",eight to twelve
same,"Microscopic examination of liver, kidney, pancreas and sternal bone marrow",[1]; Fucose-treated rats,no abnormalities
same,Oral toxicity,[1]; animals ingesting a diet composed of 20% Fucose,reduce nerve conduction velocity as well as collagen production
